This is an account of results in patent US20260325661A1, “ANTIBODY-CONJUGATED IMMUNO-ACTIVATING SMALL MOLECULE COMPOUND, AND USE” (SHENZHEN CONJUGENIX PHARMACEUTICAL TECHNOLOGY CO., LTD, priority 2023, published 2026).

Each structure is given as a SMILES string. Where two headings read alike, the source gives them in different places.

The assay deals with human peripheral blood mononuclear cells (PBMCs). Briefly: ELISA assay of immunocyte activator: induction of IFN-γ in human PBMCs. The format is cell-based. The protocol:
The immune activity of each compound is represented by the function of inducing human peripheral blood mononuclear cells (PBMCs) to produce the immune cytokine IFN-γ by, and the EC50 values thereof are shown in Table 3.
• 1) Peripheral blood samples from healthy human volunteer were collected into heparin anticoagulant tubes to reach 5 mL of fresh blood, and PBS was added at a ratio of 1:1 to dilute the blood (2 mL+2 mL in conventional blood collection tubes). • 2) 5 mL of lymphocyte separation medium was put in a 15 mL sterile centrifuge tube for use. • 3) The diluted blood was aspirated and slowly added from 1 cm above the separation medium along the tube wall, so that the diluted blood overlaid the separation medium and formed a distinct interface therewith. • 4) The centrifuge tube was centrifuged at 2000 rpm at room temperature for 20 min. Now five layers formed in the centrifuge tube: the top layer was plasma layer, and the layer between the plasma layer and the lymphocyte separation medium was the lymphocyte layer as a white film. • 5) The mononuclear cell layer as a white film in the middle was aspirated carefully and mononuclear cells were aspirated as many as possible. The mononuclear cells were washed by more than 5 volumes of PBS twice, and each time, the mononuclear cells were centrifuged at 1500 rpm for 10 min. • 6) The supernatant was removed, then 1 mL of 1640 medium was added and mixed uniformly. A small amount of the mixture was taken for cell counting.
The prepared PBMCs were plated in a 96-well plate (Costar, 3894) (2×10^5 cells per well). Each compound in Table 3 was taken and added into the wells with plated cells at ten concentrations with uniform gradient distribution (0.0001-10 μM, diluted with […] medium containing […]).
(In general: An ELISA detects its analyte on a solid surface through an enzyme-linked reagent.)

The mark [1] stands for this setting: Homo sapiens, PBMC, 24 h, 37 °C, no pretreatment marked, read-out: EC50 IFN-γ ratio (inducing human PBMCs to produce IFN-γ).
Setting [2] is: Homo sapiens, PBMC, 24 h, 37 °C, Note a: sample pretreated with human liver microsomal enzyme, 2 h, read-out: EC50 IFN-γ ratio (inducing human PBMCs to produce IFN-γ).
The mark [3] stands for this setting: Homo sapiens, PBMC, 24 h, 37 °C, Note c: sample pretreated with Cathepsin-B (10 μg) in PBS, room temperature, 3 h, read-out: EC50 IFN-γ ratio (inducing human PBMCs to produce IFN-γ).

As for `CCCCOc1nc(N)c2[nH]c(=O)n(Cc3cn(CCOCCOCCOCC(=O)N[C@H](CCCCN=[N+]=[N-])C(=O)O)nn3)c2n1` [Compound 102-N3], the EC50 under setting [1] amounted to 180 nM. Same read-out and setting: in the case of `CC[C@H](C)[C@@H]([C@@H](CC(=O)N1CCCC1[C@H](OC)[C@@H](C)C(=O)N[C@H](C)[C@@H](O)c1ccccc1)OC)N(C)C(=O)[C@@H](NC(=O)[C@H](C(C)C)N(C)C(=O)OCc1ccc(NC(=O)[C@H](CCCNC(N)=O)NC(=O)[C@@H](NC(=O)C(CCCCc2cn(CCOCCOCCOCCNC(=O)CCN3C(=O)C=CC3=O)nn2)NC(=O)CCC(=O)NCc2ccc(Cn3c(=O)[nH]c4c(N)nc(OCCOC)nc43)cc2)C(C)C)cc1)C(C)C` (stereo partly shown) [Compound K1] it was 100 nM.

Consider `COCCOc1nc(N)c2[nH]c(=O)n(Cc3ccc(CNC(=O)CCC(=O)N[C@@H](CCCCNC(=O)OCc4ccc(NC(=O)[C@H](CCCNC(N)=O)NC(=O)[C@@H](NC(=O)CCCCCN5C(=O)C=CC5=O)C(C)C)cc4)C(=O)NCCOCCOCCOCCOCCNC(=O)CCC(=O)N4Cc5ccccc5C#Cc5ccccc54)cc3)c2n1` [Compound K2], for which the EC50 under setting [1] worked out at 50 nM. The same measure, in the same setting: next, `COCCOc1nc(N)c2[nH]c(=O)n(Cc3ccc(CNC(=O)CCC(=O)NC(CCCCc4cn(CCOCCOCCOCCNC(=O)CCN5C(=O)C=CC5=O)nn4)C(=O)N[C@H](C(=O)N[C@@H](CCCNC(N)=O)C(=O)Nc4ccc(COC(=O)NC[C@H](C)c5ccc(-c6c(O)cc(C)c7[nH]c(=O)c8sccc8c67)cc5)cc4)C(C)C)cc3)c2n1` (stereo partly shown) [Compound K3]: 200 nM; `CC[C@H](C)[C@@H]([C@@H](CC(=O)N1CCCC1[C@H](OC)[C@@H](C)C(=O)N[C@H](C)[C@@H](O)c1ccccc1)OC)N(C)C(=O)[C@@H](NC(=O)[C@H](C(C)C)N(C)C(=O)OCc1ccc(NC(=O)[C@H](CCCNC(N)=O)NC(=O)[C@@H](NC(=O)C(CCCCc2cn(CCOCCOCCOCCC(=O)O)nn2)NC(=O)CCC(=O)NCc2ccc(Cn3c(=O)[nH]c4c(N)nc(OCCOC)nc43)cc2)C(C)C)cc1)C(C)C` (stereo partly shown) [Compound K5]: 130 nM; `CCCCOc1nc(N)c2[nH]c(=O)n(Cc3cn(CCOCCOCCOCC(=O)N[C@H](CCCCNC(=O)OCc4ccc(NC(=O)[C@H](CCCNC(N)=O)NC(=O)[C@@H](NC(=O)CCCCCN5C(=O)C=CC5=O)C(C)C)cc4)C(=O)NCCOCCOCCOCCOCCNC(=O)CCC(=O)N4Cc5ccccc5C#Cc5ccccc54)nn3)c2n1` [Compound K7]: 45 nM. For `CCCCOc1nc(N)c2[nH]c(=O)n(Cc3cn(CCOCCOCCOCC(=O)N[C@H](CCCCc4cn(COCCOCCOCCOCCN5C(=O)C=CC5=O)nn4)C(=O)N[C@H](C(=O)N[C@@H](CCCNC(N)=O)C(=O)Nc4ccc(COC(=O)NC[C@H](C)c5ccc(-c6c(O)cc(C)c7[nH]c(=O)c8sccc8c67)cc5)cc4)C(C)C)nn3)c2n1` [Compound K8], the EC50 under setting [1] was 110 nM.

For the compound `CCCCOc1nc(N)c2c(n1)n(Cc1cn(CCOCCOCCOCCNC(=O)OCc3ccc(NC(=O)[C@H](CCCNC(N)=O)NC(=O)[C@@H](NC(=O)CCCCC(=O)O)C(C)C)cc3)nn1)c(=O)n2C1CCCO1` (stereo partly shown) [Compound K9], under setting [2], the EC50 amounted to 9000 nM.

On to `COCCOc1nc(N)c2c(n1)n(Cc1ccc(CNC(=O)CCc3cn(CCOCCOCCOCCNC(=O)OCc4ccc(NC(=O)[C@H](CCCNC(N)=O)NC(=O)[C@@H](NC(=O)CCCCCN5C(=O)C=CC5=O)C(C)C)cc4)nn3)cc1)c(=O)n2C(=O)N1CCN(C)CC1` [Compound K10], for which, under setting [2], the EC50 worked out at 210 nM.

For the compound `COCCOc1nc(N)c2c(n1)n(Cc1ccc(CNC(=O)CCc3cn(CCOCCOCCOCCNC(=O)OCc4ccc(NC(=O)[C@H](CCCNC(N)=O)NC(=O)[C@@H](NC(=O)CCCCC(=O)O)C(C)C)cc4)nn3)cc1)c(=O)n2C1CCCO1` (stereo partly shown) [Compound K12], the EC50 under setting [2] was 200 nM.

As for `CCCCOc1nc(N)c2c(n1)c(Cc1ccc3c(c1)CN(C(=O)/C=C/C(=O)c1ccc(OC)cc1)CC3)cn2C(=O)OCc1ccc(NC(=O)[C@H](CCCNC(N)=O)NC(=O)[C@@H](NC(=O)CCOCCOCCOCCOCCN2C(=O)C=CC2=O)C(C)C)cc1` [Compound K13], the EC50 under setting [3] is 110 nM.

For `CCOC(=O)NC(=O)n1c(=O)n(Cc2ccc(CNC(=O)CCc3cn(CCOCCOCCOCCNC(=O)CCN4C(=O)C=CC4=O)nn3)cc2)c2nc(OCCOC)nc(N)c21` [Compound K14], under setting [2], the EC50 is 10 nM. On the same count and under the same terms, next, `CCOC(=O)NC(=S)n1c(=O)n(Cc2ccc(CNC(=O)CCc3cn(CCOCCOCCOCCNC(=O)CCN4C(=O)C=CC4=O)nn3)cc2)c2nc(OCCOC)nc(N)c21` [Compound K15]: 12 nM. Consider `COCCOc1nc(N)c2c(n1)n(Cc1ccc(CNC(=O)CCc3cn(CCOCCOCCOCCNC(=O)CCN4C(=O)C=CC4=O)nn3)cc1)c(=O)n2COC(=O)OC(C)C` [Compound K16], for which the EC50 (Homo sapiens, PBMC, 24 h, pH 5, 24 h, 37 °C; Note d: sample pretreated by hydrolysis, acetate buffer pH 5, 37 °C, 72 h; read-out: EC50 IFN-γ ratio (inducing human PBMCs to produce IFN-γ)) stood at 11 nM.

Take `CC[C@@]1(O)C(=O)OCc2c1cc1n(c2=O)Cc2c-1nc1cc(F)c(C)c3c1c2[C@@H](NC(=O)CO[Si](OCCOCCOCCNC(=O)C(CCCCc1cn(CCOCCOCCOCCNC(=O)CCN2C(=O)C=CC2=O)nn1)NC(=O)CCC(=O)NCc1ccc(Cn2c(=O)[nH]c4c(N)nc(OCCOC)nc42)cc1)(C(C)C)C(C)C)CC3` (stereo partly shown) [Compound K17]: the EC50 (Homo sapiens, PBMC; 24 h, 37 °C; no pretreatment marked; read-out: EC50 IFN-γ ratio (inducing human PBMCs to produce IFN-γ)) is 210 nM. With `CCCCOc1nc(N)c2[nH]c(=O)n(Cc3cn(CCOCCOCCOCCN(C[C@H](C)c4ccc(-c5c(O)cc(C)c6[nH]c(=O)c7sccc7c56)cc4)C(=O)OCc4ccc(NC(=O)[C@H](CCCNC(N)=O)NC(=O)[C@@H](NC(=O)CCCCCN5C(=O)C=CC5=O)C(C)C)cc4)nn3)c2n1` [Compound K18], the EC50 under setting [1] is 90 nM. The same measure, in the same setting: in the case of `CCCCOc1nc(N)c2[nH]c(=O)n(Cc3cn(CCOCCOCCOCCn4cc(CCCCN(C[C@H](C)c5ccc(-c6c(O)cc(C)c7[nH]c(=O)c8sccc8c67)cc5)C(=O)OCc5ccc(NC(=O)[C@H](CCCNC(N)=O)NC(=O)[C@@H](NC(=O)CCCCCN6C(=O)C=CC6=O)C(C)C)cc5)nn4)nn3)c2n1` [Compound K19] it was 80 nM; in that of `C=CC(=O)N1CCN(c2ncnc3c(F)c(-c4c(F)cccc4OCCc4cn(CCCNc5nc(NCCOCCOCCOCCNC(=O)CCC(=O)NCc6ccc(Cn7c(=O)[nH]c8c(N)nc(OCCOC)nc87)cc6)nc(N6CCC(CNC(=O)OCc7ccc(NC(=O)[C@H](CCCNC(N)=O)NC(=O)[C@@H](NC(=O)CCOCCOCCOCCN=[N+]=[N-])C(C)C)cc7)CC6)n5)nn4)c(Cl)cc23)CC1` [Compound K21], 6 nM.

`CCCCOc1nc(N)c2c(n1)N(Cc1cn(CCNC(=O)OCc3ccc(NC(=O)[C@H](CCCNC(N)=O)NC(=O)[C@@H](NC(=O)CCOCCOCCOCCOCCN(CCOCCOCCOCCOCCC(=O)N[C@H](C(=O)N[C@@H](CCCNC(N)=O)C(=O)Nc4ccc(COC(=O)NCCn5cc(Cn6c(=O)[nH]c7c(N)nc(OCCCC)nc76)nn5)cc4)C(C)C)C(=O)CCN4C(=O)C=CC4=O)C(C)C)cc3)nn1)C(=O)C2` [Compound K22]: the EC50 under setting [3] was 80 nM. With `COCCOc1nc(N)c2[nH]c(=O)n(Cc3ccc(CNC(=O)CCc4cn(CCOCCOCCOCCN(CCOCCOCCOCCn5cc(CCC(=O)NCc6ccc(Cn7c(=O)[nH]c8c(N)nc(OCCOC)nc87)cc6)nn5)C(=O)OCc5ccc(NC(=O)[C@H](CCCNC(N)=O)NC(=O)[C@@H](CC(=O)NCOCCOCCOCCN=[N+]=[N-])C(C)C)cc5)nn4)cc3)c2n1` [Compound K23], the EC50 under setting [1] worked out at 30 nM. Still for that read-out and setting: next, `COCCOc1nc(N)c2[nH]c(=O)n(Cc3ccc(CNC(=O)CCC(=O)NC(CCCCc4cn(CCOCCOCCOCCNC(=O)CCN5C(=O)C=CC5=O)nn4)C(=O)NCCOCCOCCOCCOCCNC(=O)CCC(=O)N4Cc5ccccc5C#Cc5ccccc54)cc3)c2n1` (stereo not shown) [Compound K24]: 3 nM. As to `COCCOc1nc(N)c2[nH]c(=O)n(Cc3ccc(CNC(=O)CCC(=O)NC(CCCCc4cn(CCOCCOCCOCCNC(=O)CCN5C(=O)C=CC5=O)nn4)C(=O)NCCOCCOCCOCCOc4ccc(-c5nnc(C)nn5)cc4)cc3)c2n1` (stereo not shown) [Compound K25], the EC50 under setting [1] amounted to 5 nM. Regarding `COCCOc1nc(N)c2[nH]c(=O)n(Cc3ccc(CNC(=O)CCC(=O)NC(CCCCc4cn(CCOCCOCCOCCNC(=O)CCN5C(=O)C=CC5=O)nn4)C(=O)NCCOCCOCCOCCNC(=O)OC4CC/C=C/CCC4)cc3)c2n1` (stereo not shown) [Compound K26], the EC50 under setting [1] amounted to 2 nM.

`COCCOc1nc(N)c2[nH]c(=O)n(Cc3ccc(CNC(=O)CCC(=O)NC(CCCCc4cn(CCCCN5CCN(CCCNC(=S)N6CCCC(n7nc(-c8ccc(Oc9ccccc9)cc8)c8c(N)ncnc87)C6)CC5)nn4)C(=O)N4CCN(C(=O)OCc5ccc(NC(=O)[C@H](CCCNC(N)=O)NC(=O)[C@@H](NC(=O)CCOCCOCCOCCOCCN6C(=O)C=CC6=O)C(C)C)cc5)CC4)cc3)c2n1` (stereo partly shown) [Compound K27]: the EC50 under setting [1] is 250 nM. `COCCOc1nc(N)c2[nH]c(=O)n(Cc3ccc(CNC(=O)CCC(=O)NC(CCCCNC(=O)OCc4ccc(NC(=O)[C@H](CCCNC(N)=O)NC(=O)[C@@H](NC(=O)CCCCCN5C(=O)C=CC5=O)C(C)C)cc4)C(=O)NCCOCCOCCOCCOc4ccc(-c5nnc(C)nn5)cc4)cc3)c2n1` (stereo partly shown) [Compound K29]: under setting [1], the EC50 is 31 nM.
